Experiment: Skin PAMPA (Parallel Artificial Membrane Permeability Assay) permeation from a cosmetic formulation
Assay type: in vitro ADME
Settings: for Mean amount per ml acceptor liquid: 0.05% in formulation, no penetration enhancer; for Penetration behaviour compared with DhAvn D: absence of a penetration enhancer, FIG. 1; for Modulation (%) of penetration / increase of permeation / Modulation (%) of penetration: 3% 1,2-pentanediol (Hydrolite-5)
Protocol: The permeation of Avn A from a cosmetic formulation across a stratum corneum-mimicking artificial membrane was evaluated using the Skin PAMPA™ (Parallel Artificial Membrane Permeability Assay) model.
The primary penetration barrier of the skin, the stratum corneum (SC), consists of corneocytes embedded in extracellular lipids. The lipid mixture of the Skin PAMPA™ membrane consists of similar quantities of certramides (synthetic ceramide analogues), stearic acid and cholesterol as the SC. The Skin PAMPA™ sandwich consists of two 96-well plates, wherein one plate is formed so as to sit precisely under the plate that contains a porous lipid-impregnated filter. The wells of the bottom plate were filled with formulation, and the wells of the top plate were filled with acceptor solution. The plates were then stacked and incubated. The Skin PAMPA™ model has been used to evaluate semi-solid formulations and found to correlate well with ex vivo permeation studies.
(§1) Heat Phase A and B separately to 70° C.; disperse Phase C in B; add Phase BC to Phase A and emulsify using an ULTRA TURRAX® stirrer (2 minutes); allow to cool by using a vane stirrer; add Phase D for neutralising. The formulation was prepared in bulk. The active substances were pre-dissolved in the corresponding additives and were added to the formulation (15 minutes stirring with a vane stirrer).
180 ml of buffer was mixed with 20 ml ethanol (buffer: 20 mmol/l citric acid, pH 5.5); 0.84 g of anhydrous citric acid was dissolved in approximately 180 g of water; the pH was adjusted to 5.5 using a 30% sodium hydroxide solution; following pH adjustment, the solution was filled up with water to 200 g.
After 240 minutes, approximately 180 μl of each Skin PAMPA™ sample was transferred into an HPLC micro-vial.
Equipment: an Agilent HP 1100 connected to a Waters Empower 3 SR3
Column: a Waters XBridge® C18, 3.5 μm, 3.0×50 mm
Column temperature: 30° C. Mobile phase A: water+0.1% formic acid Mobile phase B: methanol Flow: 1.02 ml/min Injection volume: 25 μl
The permeation of Avn L from a cosmetic formulation across a stratum corneum-mimicking artificial membrane was evaluated as described above using the Skin PAMPA™ (Parallel Artificial Membrane Permeability Assay) model.
The permeation of Avn B from a cosmetic formulation across a stratum corneum-mimicking artificial membrane was evaluated as described above using the Skin PAMPA™ (Parallel Artificial Membrane Permeability Assay) model.
Unlike Examples 1 and 2, acceptor solution samples for HPLC analysis of each Skin PAMPA™ sample were this time taken after just 120 minutes.
(§2) The skin permeation of Avn A, Avn B, Avn C and Avn L in comparison to dihydroavenanthramide D (DhAvn D) from a cosmetic formulation across a stratum corneum-mimicking artificial membrane was evaluated as described above using the Skin PAMPA™ (Parallel Artificial Membrane Permeability Assay) model.
as §1, with “glycerine or water or mixtures thereof” for “the corresponding additives”
After 60, 120 and 240 minutes, approximately 180 μl of each Skin PAMPA™ sample was transferred into an HPLC micro-vial and analysed by HPLC.
as §2, with “The” for “The skin”, “of” for “of Avn A, Avn B, Avn C and”, “formulation in the presence of 3% 1,2-pentanediol” for “formulation”

Row | Mean amount per ml acceptor liquid (0 min) | Mean amount per ml acceptor liquid (60 min) | Mean amount per ml acceptor liquid (120 min) | Mean amount per ml acceptor liquid (240 min) | Increase of permeation (1% Hydrolite-6 (1,2-hexanediol), Example 3, samples taken after 120 minutes) | Increase of permeation (1% SymDiol 68 (1:1 1,2-hexanediol and 1,2-octanediol), Example 3, samples taken after 120 minutes) | Increase of permeation (2% Hydrolite-6 (1,2-hexanediol), Example 3, samples taken after 120 minutes) | Increase of permeation (1% Hydrolite-6 (1,2-hexanediol), 240 min) | Modulation (%) of penetration / increase of permeation (240 min) | Increase of permeation (2% Hydrolite-6 (1,2-hexanediol), 240 min) | Increase of permeation (5% Hydrolite-5 (1,2-pentanediol), 240 min) | Modulation (%) of penetration (60 min) | Modulation (%) of penetration (120 min) | SMILES | Penetration behaviour compared with DhAvn D
1 | 0 μg per ml | 0.038 μg per ml | 0.063 μg per ml | 0.154 μg per ml | 62% | 87% | 76% |  |  |  |  |  |  | COc1cc(C=CC(=O)Nc2ccc(O)cc2C(=O)O)ccc1O [Avn B, N-(4′-hydroxy-3′-methoxycinnamoyl)-5-hydroxyanthranilic acid] | weaker penetration behaviour than dehydroavenanthramide D (DhAvn D)
2 | 0 μg per ml | 0 μg per ml | 0.000 μg per ml | 0.030 μg per ml |  |  |  | 160% | 125% |  |  |  |  | O=C(/C=C/C=C/c1ccc(O)cc1)Nc1ccc(O)cc1C(=O)O [Avn L] | weaker penetration behaviour than dehydroavenanthramide D (DhAvn D)
3 | 0 μg per ml | 0.069 μg per ml | 0.188 μg per ml | 0.319 μg per ml |  |  |  |  | 19% | 46% | 59% |  |  | O=C(C=Cc1ccc(O)cc1)Nc1ccc(O)cc1C(=O)O [Avn A, N-(4′-hydroxycinnamoyl)-5-hydroxyanthranilic acid] | weaker penetration behaviour than dehydroavenanthramide D (DhAvn D)
4 | 0.000 μg per ml | 0.225 μg per ml | 0.288 μg per ml | 0.750 μg per ml |  |  |  |  | 57% |  |  | −2% | 58% | O=C(CCc1ccc(O)cc1)Nc1ccccc1C(=O)O [Dihydroavenanthramide D, 2-(3-(4-hydroxyphenyl-)propanoyl-)amidobenzoic acid, reference compound] | 
5 | 0 μg per ml | 0.321 μg per ml | 0.532 μg per ml | 1.098 μg per ml |  |  |  |  |  |  |  |  |  | O=C(C=Cc1ccc(O)c(O)c1)Nc1ccc(O)cc1C(=O)O [Avn C, N-(3′-4′-dihydroxycinnamoyl)-5-hydroxyanthranilic acid] | penetrates better than dehydroavenanthramide D (DhAvn D)

From US20230118435A1, “COMPOSITION COMPRISING AN AVENANTHRAMIDE WITH IMPROVED SKIN PENETRATION” (priority 2020, published 2023)
